From ChEMBL document CHEMBL1944629, “Investigation of trypanothione reductase inhibitory activity by 1,3,4-thiadiazolium-2-aminide derivatives and molecular docking studies” (Bioorg Med Chem, 2012)
Calls of active or inactive are those of the source. No cut-off for these calls is given here.

Key:
[1] = biological target: Trypanothione reductase (Leishmania amazonensis) (UniProt A5JV95); test: Inhibition of trypanothione reductase in Leishmania amazonensis MHOM/BR/LTB0016 extracts assessed as NADPH consumption using trypanothione disulfide as substrate at 1 uM after 5 sec by spectrophotometer
Trypanothione reductase (Leishmania amazonensis), sequence (A5JV95 as listed by the source): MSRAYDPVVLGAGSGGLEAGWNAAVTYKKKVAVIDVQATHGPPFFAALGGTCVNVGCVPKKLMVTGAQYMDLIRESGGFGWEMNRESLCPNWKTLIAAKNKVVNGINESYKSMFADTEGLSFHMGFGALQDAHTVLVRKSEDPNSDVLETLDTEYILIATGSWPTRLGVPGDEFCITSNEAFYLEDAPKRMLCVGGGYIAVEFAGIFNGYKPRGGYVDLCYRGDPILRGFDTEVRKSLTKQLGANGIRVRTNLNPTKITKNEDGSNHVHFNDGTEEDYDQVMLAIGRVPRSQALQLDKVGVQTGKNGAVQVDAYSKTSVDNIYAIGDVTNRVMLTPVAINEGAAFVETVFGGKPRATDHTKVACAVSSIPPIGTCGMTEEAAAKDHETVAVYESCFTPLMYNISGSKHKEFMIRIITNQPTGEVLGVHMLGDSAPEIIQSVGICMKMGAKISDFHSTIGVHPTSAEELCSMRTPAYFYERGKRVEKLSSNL

[2] = biological target: Trypanothione reductase (Leishmania infantum) (UniProt A4HSF7); test: Inhibition of trypanothione reductase in promastigotes of Leishmania infantum MHOM/MA67ITMAP263 extracts assessed as NADPH consumption using trypanothione disulfide as substrate at 1 uM after 5 sec by spectrophotometer
Trypanothione reductase (Leishmania infantum), sequence (A4HSF7 as listed by the source): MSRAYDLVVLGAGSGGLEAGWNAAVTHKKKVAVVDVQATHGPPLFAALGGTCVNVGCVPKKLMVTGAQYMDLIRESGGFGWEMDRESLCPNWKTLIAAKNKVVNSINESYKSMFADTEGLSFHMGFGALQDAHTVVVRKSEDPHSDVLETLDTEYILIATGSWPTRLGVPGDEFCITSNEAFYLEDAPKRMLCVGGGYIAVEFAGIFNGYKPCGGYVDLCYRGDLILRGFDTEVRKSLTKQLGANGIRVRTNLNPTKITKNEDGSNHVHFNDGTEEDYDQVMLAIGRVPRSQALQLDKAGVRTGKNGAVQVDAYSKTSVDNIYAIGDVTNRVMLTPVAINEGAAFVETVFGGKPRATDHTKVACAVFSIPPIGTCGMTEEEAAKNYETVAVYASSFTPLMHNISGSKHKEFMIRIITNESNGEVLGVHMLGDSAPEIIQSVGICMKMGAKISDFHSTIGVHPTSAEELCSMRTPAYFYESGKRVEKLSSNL

[3] = tested on: Leishmania braziliensis; test: Inhibition of trypanothione reductase in promastigotes of Leishmania braziliensis MCAN/BR/98/R619 extracts assessed as NADPH consumption using trypanothione disulfide as substrate at 1 uM after 5 sec by spectrophotometer
[4] = biological target: Trypanothione reductase (Trypanosoma cruzi) (UniProt P28593); test: Inhibition of trypanothione reductase epimastigotes of Trypanosoma cruzi Y extracts assessed as NADPH consumption using trypanothione disulfide as substrate at 1 uM after 5 sec by spectrophotometer
Trypanothione reductase (Trypanosoma cruzi), sequence (P28593 whole entry, looked up): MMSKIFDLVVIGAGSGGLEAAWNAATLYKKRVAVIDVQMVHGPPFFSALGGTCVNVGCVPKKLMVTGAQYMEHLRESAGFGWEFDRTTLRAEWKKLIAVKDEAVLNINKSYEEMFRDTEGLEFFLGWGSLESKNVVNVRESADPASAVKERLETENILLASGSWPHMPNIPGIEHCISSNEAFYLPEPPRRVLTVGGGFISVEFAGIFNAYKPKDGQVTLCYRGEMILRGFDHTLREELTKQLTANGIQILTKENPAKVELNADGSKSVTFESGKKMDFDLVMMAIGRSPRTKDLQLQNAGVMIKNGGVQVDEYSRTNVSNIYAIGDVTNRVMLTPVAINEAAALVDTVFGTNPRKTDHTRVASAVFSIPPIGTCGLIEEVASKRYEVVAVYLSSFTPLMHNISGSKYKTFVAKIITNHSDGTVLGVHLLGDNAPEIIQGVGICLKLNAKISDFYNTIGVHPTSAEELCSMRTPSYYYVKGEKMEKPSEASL

[5] = biological target: Trypanothione reductase (Leishmania infantum) (UniProt A4HSF7); test: Inhibition of recombinant Leishmania infantum MHOM/MA67ITMAP263 trypanothione reductase assessed as inhibition of NADPH consumption using trypanothione disulfide as substrate at 1 uM after 60 secs by spectrophotometer
[6] = biological target: Trypanothione reductase (Trypanosoma cruzi) (UniProt P28593); test: Inhibition of recombinant Trypanosoma cruzi Y trypanothione reductase assessed as inhibition of NADPH consumption using trypanothione disulfide as substrate at 1 uM after 60 secs by spectrophotometer

Row | inhibition [1] | inhibition [2] [%] | inhibition [3] [%] | inhibition [4] [%] | inhibition [5] | inhibition [6] | Structure (SMILES)
1 | 76% | 70 | 69.5 | 83 | 76% | 69% | O=[N+]([O-])c1ccc(/C=C/c2sc(Nc3ccccc3)n[n+]2-c2ccccc2)cc1
2 | inactive | – | – | – | inactive | inactive | C(=C\c1sc(Nc2ccccc2)n[n+]1-c1ccccc1)/c1ccccc1
3 | inactive | – | – | – | – | – | COc1cccc(/C=C/c2sc(Nc3ccccc3)n[n+]2-c2ccccc2)c1
4 | inactive | – | – | – | – | – | COc1ccc(/C=C/c2sc(Nc3ccccc3)n[n+]2-c2ccccc2)cc1
